Results taken from the NIST ThermoML archive (doi:10.1021/je900478c).
± gives the expanded uncertainty stated by the source.

Assay: refractive index (Na D-line) (dimensionless); xn = mol fraction of the nth substance listed
Conditions: 101 kPa, Liquid, Standard Abbe refractometry

CCCCOCCO [2-butoxyethan-1-ol] + O
refractive index
Conditions | x1 = 0.1003 | x1 = 0.2 | x1 = 0.3 | x1 = 0.4 | x1 = 0.5 | x1 = 0.6 | x1 = 0.7 | x1 = 0.7999 | x1 = 0.9 | x1 = 1
283.15 K | 1.3785 ± 0.0008 | 1.3965 ± 0.00041 | 1.4061 ± 0.00042 | 1.4118 ± 0.00046 | 1.4156 ± 0.00048 | 1.41823 ± 0.00049 | 1.4199 ± 0.00051 | 1.4212 ± 0.00052 | 1.4221 ± 0.00053 | 1.4226 ± 0.00054
293.15 K | 1.37658 ± 0.00046 | 1.39418 ± 0.00048 | 1.40355 ± 0.0005 | 1.4091 ± 0.00051 | 1.4128 ± 0.00052 | 1.41532 ± 0.00053 | 1.41695 ± 0.00054 | 1.41815 ± 0.00055 | 1.41905 ± 0.00056 | 1.4196 ± 0.00056
303.15 K | 1.374 ± 0.00048 | 1.39115 ± 0.00051 | 1.40025 ± 0.00054 | 1.40562 ± 0.00055 | 1.4092 ± 0.00056 | 1.4116 ± 0.00057 | 1.41315 ± 0.00058 | 1.4143 ± 0.00059 | 1.4152 ± 0.0006 | 1.4157 ± 0.00061
313.15 K | 1.37118 ± 0.0011 | 1.3878 ± 0.00054 | 1.39655 ± 0.00056 | 1.40175 ± 0.00057 | 1.4052 ± 0.00058 | 1.4075 ± 0.00059 | 1.40898 ± 0.0006 | 1.41012 ± 0.00061 | 1.41095 ± 0.00061 | 1.41139 ± 0.00062
323.15 K | – | 1.38385 ± 0.0013 | 1.39248 ± 0.00066 | 1.3976 ± 0.00062 | 1.401 ± 0.00062 | 1.4032 ± 0.00062 | 1.40465 ± 0.00061 | 1.40575 ± 0.00062 | 1.4066 ± 0.00063 | 1.40701 ± 0.00063

CCCCOCCOCCO [3,6-dioxa-1-decanol] + O
refractive index
Conditions | x1 = 0.1 | x1 = 0.2 | x1 = 0.2999 | x1 = 0.4 | x1 = 0.5 | x1 = 0.6 | x1 = 0.7 | x1 = 0.7998 | x1 = 0.8999 | x1 = 1
283.15 K | 1.3916 ± 0.0011 | 1.41105 ± 0.00041 | 1.42035 ± 0.00043 | 1.42548 ± 0.00048 | 1.4286 ± 0.00051 | 1.4307 ± 0.00053 | 1.4323 ± 0.00053 | 1.4334 ± 0.00055 | 1.4342 ± 0.00056 | 1.4347 ± 0.00057
293.15 K | 1.38935 ± 0.00046 | 1.40833 ± 0.00048 | 1.4174 ± 0.0005 | 1.42235 ± 0.00051 | 1.42535 ± 0.00052 | 1.42735 ± 0.00053 | 1.4289 ± 0.00053 | 1.4299 ± 0.00054 | 1.4307 ± 0.00055 | 1.4312 ± 0.00056
303.15 K | 1.38705 ± 0.00048 | 1.4057 ± 0.00051 | 1.4146 ± 0.00052 | 1.41942 ± 0.00053 | 1.4224 ± 0.00054 | 1.42428 ± 0.00054 | 1.4258 ± 0.00055 | 1.42675 ± 0.00056 | 1.4275 ± 0.00057 | 1.42805 ± 0.00057
313.15 K | 1.3842 ± 0.00051 | 1.4022 ± 0.00055 | 1.4109 ± 0.00057 | 1.41568 ± 0.00058 | 1.4185 ± 0.00059 | 1.4204 ± 0.00059 | 1.42185 ± 0.0006 | 1.42273 ± 0.00061 | 1.4234 ± 0.00062 | 1.424 ± 0.00062
323.15 K | 1.3808 ± 0.0015 | 1.3982 ± 0.0008 | 1.4067 ± 0.00068 | 1.4113 ± 0.00065 | 1.41405 ± 0.00063 | 1.4159 ± 0.00063 | 1.41725 ± 0.00064 | 1.41815 ± 0.00064 | 1.4188 ± 0.00064 | 1.4194 ± 0.00064
